Measurements as given in patent publication US6953789B2, “Thiol compounds, their production and use” (Takeda Chemical Industries, Ltd., priority 1998, dated 2005).

Target: T1, recombinant human MMP-13 (Homo sapiens, UniProt P45452)
T1 construct: made in house; host or cells: baculovirus (pBlueBac4 / Bac-N-Blue; virus made in Sf9), expressed in High-Five insect cells; culture supernatant used
Test: Assay of MMP-13 inhibiting activity (fluorogenic peptide substrate)
Assay type: biochemical
Conditions: Table 1; 37° C., 2 hours
How it was run: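 Baculovirus-expressed human MMP-13 (High-Five cell supernatant) in pH 7.5 Tris buffer with 200 mM NaCl, 20 mM CaCl2, 0.1% Brij 35, 1 mM 2-mercaptoethanol; reaction started with 40 μM (stock) MOCAc-PLGL-A2pr(DNP)-AR-NH2, 2 h at 37 °C, stopped at pH 3.0. Fluorescence 330/405 nm; IC50 versus no-compound control.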

Compound	IC50
O=C(SC1CC(=O)N(Cc2ccc(Oc3ccccc3)cc2)C1=O)c1ccccc1 (stereo not shown) [Example 6, 3-Benzoylthio-1-(4-phenoxybenzyl)pyrrolidine-2,5-dione]	2 nM
CCOC(=O)CCSC1CC(=O)N(Cc2ccc(Oc3ccccc3)cc2)C1=O (stereo not shown) [Example 3, 3-[2-(Ethoxycarbonyl)ethylthio]-1-(4-phenoxybenzyl)pyrrolidine-2,5-dione]	> 10000 nM

Same assay, conditions: Table 3; 37° C., 2 hours

Compound	IC50
CC(=O)S[C@@H]1CC(=O)N(Cc2ccc(Oc3ccccc3)cc2)C1 [Example 24, (R)-4-Acetylthio-1-(4-phenoxybenzyl)pyrrolidin-2-one]	9 nM
CCSS[C@@H]1CC(=O)N(Cc2ccc(Oc3ccccc3)cc2)C1 [Example 79, (4R)-4-(Ethyldisulfanyl)-1-(4-phenoxybenzyl)-2-pyrrolidinone]	100 nM
O=C(O)CC(=O)S[C@@H]1CC(=O)N(Cc2ccc(Oc3ccccc3)cc2)C1 [Example 73, 3-Oxo-3-{[(3R)-5-oxo-1-(4-phenoxybenzyl)pyrrolidinyl]sulfanyl}propanoic acid]	11 nM
O=C(Nc1ccccc1)SC1CC(=O)N(Cc2ccc(Oc3ccccc3)cc2)C1 (stereo not drawn) [Example 53, S-[5-oxo-1-(4-phenoxybenzyl)-3-pyrrolidinyl]phenylcarbamothioate]	1 nM
CCOC(=O)CCS[C@@H]1CC(=O)N(Cc2ccc(Oc3ccccc3)cc2)C1 [Example 92, Ethyl 3-{[(3R)-5-oxo-1-(4-phenoxybenzyl)pyrrolidinyl]sulfanyl}propanoate]	2000 nM
O=C(NCc1ccccc1)S[C@@H]1CC(=O)N(Cc2ccc(Oc3ccccc3)cc2)C1 [Example 54, S-[(3R)-5-oxo-1-(4-phenoxybenzyl)pyrrolidinyl]benzylthiocarbamate]	1.5 nM
O=C1C[C@@H](S)CN1Cc1ccc(Oc2ccccc2)cc1 [Example 25, (R)-4-Mercapto-1-(4-phenoxybenzyl)pyrrolidin-2-one]	3 nM
CCCCCCSS[C@@H]1CC(=O)N(Cc2ccc(Oc3ccccc3)cc2)C1 [Example 80, (4R)-4-(Hexyldisulfanyl)-1-(4-phenoxybenzyl)-2-pyrrolidinone]	1000 nM
O=C1CC(S)CN1Cc1ccc(Oc2ccccc2)cc1 (stereo not shown) [Example 17, 4-Mercapto-1-(4-phenoxybenzyl)pyrrolidin-2-one]	5 nM
CCOC(=O)NC(=O)S[C@@H]1CC(=O)N(Cc2ccc(Oc3ccccc3)cc2)C1 [Example 57, O-Ethyl S-[(3R)-5-oxo-1-(4-phenoxybenzyl)pyrrolidinyl]imidothiodicarbonate]	0.81 nM
O=C(O)CCSS[C@@H]1CC(=O)N(Cc2ccc(Oc3ccccc3)cc2)C1 [Example 85]	460 nM
CNC(=O)S[C@@H]1CC(=O)N(Cc2ccc(Oc3ccccc3)cc2)C1 [Example 50, S-[(3R)-5-oxo-1-(4-phenoxybenzyl)pyrrolidinyl]methylthiocarbamate]	3 nM
CCOC(=O)CNC(=O)S[C@@H]1CC(=O)N(Cc2ccc(Oc3ccccc3)cc2)C1 [Example 58, Ethyl [({[(3R)-5-oxo-1-(4-phenoxybenzyl)pyrrolidinyl]sulfanyl}carbonyl)amino]acetate]	0.7 nM
Ethyl 3-{[(3R)-5-oxo-1-(4-phenoxybenzyl)-2-pyrrolidinyl]disulfanyl}propanoate [Example 84]	32 nM

Same assay, conditions: Table 4; 37° C., 2 hours

Compound	IC50
CC(=O)SC1CC(=O)N(Cc2cccc(Oc3ccccc3)c2)C1 (stereo not shown) [Example 40, 4-Acetylthio-1-(3-phenoxybenzyl)pyrrolidin-2-one]	1000 nM

Same assay, conditions: Table 5; 37° C., 2 hours

Compound	IC50
O=C1C[C@@H](S)[C@H](COCc2ccccc2)N1Cc1ccc(Oc2ccccc2)cc1 (relative stereo) [Example 39, Trans-5-benzyloxymethyl-4-mercapto-1-(4-phenoxybenzyl)pyrrolidin-2-one]	9 nM
CC(=O)S[C@H]1CC(=O)N(Cc2ccc(Oc3ccccc3)cc2)[C@H]1C [Example 175, (4S,5S)-4-Acetylthio-5-methyl-1-(4-phenoxybenzyl)pyrrolidin-2-one]	100 nM
C[C@H]1[C@@H](S)CC(=O)N1Cc1ccc(Oc2ccccc2)cc1 [Example 176, (4S,5S)-4-Mercapto-5-methyl-1-(4-phenoxybenzyl)pyrrolidin-2-one]	50 nM
CC(=O)S[C@@H]1CC(=O)N(Cc2ccc(Oc3ccccc3)cc2)[C@H]1C [Example 177, (4R,5S)-4-Acetylthio-5-methyl-1-(4-phenoxybenzyl)pyrrolidin-2-one]	2 nM

Same assay, conditions: Table 7; 37° C., 2 hours

Compound	IC50
O=C1CC(SC2CC(=O)N(Cc3ccc(Oc4ccccc4)cc3)C2=O)C(=O)N1Cc1ccc(Oc2ccccc2)cc1 (stereo not shown) [Example 14]	100 nM

Same assay, conditions: Table 8; 37° C., 2 hours

Compound	IC50
O=C(SC1CCN(Cc2ccc(Oc3ccccc3)cc2)C1=O)c1ccccc1 (stereo not shown) [Example 28, 3-Benzoylthio-1-(4-phenoxybenzyl)pyrrolidin-2-one]	1000 nM

Same assay, conditions: Table 9; 37° C., 2 hours

Compound	IC50
O=C1C[C@@H](S)CN1Cc1ccc(Oc2ccc(Cl)cc2)cc1 [Example 126, (R)-4-Mercapto-1-[4-(4-chlorophenoxy)benzyl]pyrrolidin-2-one]	1.7 nM
O=C1CC(S)CN1Cc1ccc(Oc2ccc(F)c(F)c2)cc1 (stereo not shown) [Example 122, 4-Mercapto-1-[4-(3′,4′-difluorophenoxy)benzyl]pyrrolidin-2-one]	20 nM
COc1ccc(Oc2ccc(CN3CC(SC(C)=O)CC3=O)cc2)cc1 (stereo not shown) [Example 36, 4-Acetylthio-1-(4-(4′-methoxyphenoxy)benzyl)pyrrolidin-2-one]	50 nM
CC(=O)SC1CC(=O)N(Cc2ccc(Oc3cccc(F)c3)cc2)C1 (stereo not shown) [Example 114, 4-Acetylthio-1-[4-(3′-fluorophenoxy)benzyl]pyrrolidin-2-one]	10 nM
O=C1CC(S)CN1Cc1ccc(Oc2ccc(Br)cc2)cc1 (stereo not shown) [Example 35, 4-Mercapto-1-(4-(4′-bromophenoxy)benzyl)pyrrolidin-2-one]	6 nM
O=C1CC(S)CN1Cc1ccc(Oc2ccc([N+](=O)[O-])cc2)cc1 (stereo not shown) [Example 143, 4-Mercapto-1-[4-(4′-nitrophenoxy)benzyl]pyrrolidin-2-one]	11 nM
O=C1CC(S)CN1Cc1ccc(Oc2ccc(O)cc2)cc1 (stereo not shown) [Example 137, 4-Mercapto-1-[4-(4′-hydroxyphenoxy)benzyl]pyrrolidin-2-one]	3 nM
(R)-4-Acethylthio-1-[4-(4-chlorophenoxy)benzyl]pyrrolidin-2-one [Example 125]	6.1 nM
CC(=O)Nc1ccc(Oc2ccc(CN3CC(S)CC3=O)cc2)cc1 (stereo not shown) [Example 145, 4-Mercapto-1-[4-(4′-acetoaminophenoxy)benzyl]pyrrolidin-2-one]	1.3 nM
O=C1CC(S)CN1Cc1ccc(Oc2ccc(F)cc2F)cc1 (stereo not shown) [Example 120, 4-Mercapto-1-[4-(2′,4′-difluorophenoxy)benzyl]pyrrolidin-2-one]	7 nM
CC(=O)SC1CC(=O)N(Cc2ccc(Oc3ccc(NS(C)(=O)=O)cc3)cc2)C1 (stereo not shown) [Example 146, 4-Acetylthio-1-[4-(4′-methylsulfonylaminophenoxy)benzyl]pyrrolidin-2-one]	25 nM
O=C1CC(S)CN1Cc1ccc(Oc2ccc(F)cc2)cc1 (stereo not shown) [Example 31, 4-Mercapto-1-(4-(4′-fluorophenoxy)benzyl)pyrrolidin-2-one]	3 nM
CC(=O)SC1CC(=O)N(Cc2ccc(Oc3ccc(F)cc3F)cc2)C1 (stereo not shown) [Example 119, 4-Acetylthio-1-[4-(2′,4′-difluorophenoxy)benzyl]pyrrolidin-2-one]	10 nM
CC(=O)SC1CC(=O)N(Cc2ccc(Oc3ccc([N+](=O)[O-])cc3)cc2)C1 (stereo not shown) [Example 142, 4-Acetylthio-1-[4-(4′-nitrophenoxy)benzyl]pyrrolidin-2-one]	53 nM

Same assay, conditions: Table 10; 37° C., 2 hours

Compound	IC50
CC(=O)SC1CC(=O)N(CCc2ccc(Oc3ccccc3)cc2)C1 (stereo not drawn) [Example 169, S-[5-Oxo-1-(4-phenoxyphenethyl)-3-pyrrolidinyl]ethanethioate]	7000 nM
O=C1CC(S)CN1CCc1ccc(Oc2ccccc2)cc1 (stereo not shown) [Example 170, 1-(4-Phenoxyphenethyl)-4-sulfanyl-2-pyrrolidinone]	500 nM
CC(=O)SC1CC(=O)N(Cc2ccc(C(=O)c3ccccc3)cc2)C1 (stereo not shown) [Example 161, 4-Acetylthio-1-(4-benzoylbenzyl)pyrrolidin-2-one]	200 nM

Same assay, conditions: Table 11; 37° C., 2 hours

Compound	IC50
CC(=O)SC1CC(=O)N(Cc2ccc(Oc3ccccn3)cc2)C1 (stereo not shown) [Example 156, 4-Acetylthio-1-[4-(2′-pyridyloxy)benzyl]pyrrolidin-2-one]	700 nM

Tested on: nasal cartilage
Test: Assay of cartilage collagen degradation inhibiting activity (IL-1β-stimulated nasal cartilage pieces, hydroxyproline release)
Assay type: cell-based, cow
Conditions: 504 h; at 1 μM of compound; human recombinant IL-1β; incubation 3 weeks
Procedure: A nasal cartilage was isolated aseptically from a sacrificed cow, and preincubated in a Dulbecco's modified eagle medium containing 5% heat-inactivated fetal bovine serum, 100 units/ml of penicillin G and 100 units/ml of streptomycin at 37° C. under 5% CO2 and 95% air for 3 days. After completing the preincubation, a cartilage piece weighing about 10 mg was prepared and placed in 100 μl of a medium supplemented with a human recombinant interleukin-1β (IL-1β: *ZENZYME*) and a test compound. After incubating for 3 weeks in total during which the culture medium was replaced on the weekly basis, the total amount of hydroxyproline liberated into the culture medium and the amount of hydroxyproline remaining in the cartilage piece were determined and % collagen degradation was calculated. The collagen degradation inhibiting activity of a test compound was determined according to the following equation. Collagen degradation inhibiting activity (%)=100×(Ci−Cs)/(Ci−Cc) Equation: wherein Cc is % collagen degradation in the absence of both of IL-1β and compound, Ci is % collagen degradation in the presence of IL-1β, and Cs is a % collagen degradation in the presence of both of IL-1β and a test compound.

Compound	inhibition at 1 µM
O=C1C[C@@H](S)[C@H](COCc2ccccc2)N1Cc1ccc(Oc2ccccc2)cc1 (relative stereo) [Example 39, Trans-5-benzyloxymethyl-4-mercapto-1-(4-phenoxybenzyl)pyrrolidin-2-one]	39%
CC(=O)SC1CC(=O)N(Cc2ccc(Oc3ccccn3)cc2)C1 (stereo not shown) [Example 156, 4-Acetylthio-1-[4-(2′-pyridyloxy)benzyl]pyrrolidin-2-one]	84%
O=C1C[C@@H](S)CN1Cc1ccc(Oc2ccc(Cl)cc2)cc1 [Example 126, (R)-4-Mercapto-1-[4-(4-chlorophenoxy)benzyl]pyrrolidin-2-one]	70%
CC(=O)S[C@@H]1CC(=O)N(Cc2ccc(Oc3ccccc3)cc2)C1 [Example 24, (R)-4-Acetylthio-1-(4-phenoxybenzyl)pyrrolidin-2-one]	91%
O=C1C[C@@H](S)CN1Cc1ccc(Oc2ccccc2)cc1 [Example 25, (R)-4-Mercapto-1-(4-phenoxybenzyl)pyrrolidin-2-one]	88%
